Source: ChEMBL document CHEMBL1909046, “DrugMatrix in vitro pharmacology data”
pIC50, pKi: −log10 of the molar value.

Legend:
[1] = DRUGMATRIX: Serotonin (5-Hydroxytryptamine) 5-HT3 radioligand binding (ligand: [3H] GR-65630); format: cell membranes, Membrane; details: hek293; Not Active = under 50% inhibition at 10 µM
[2] = molecular target: 5-hydroxytryptamine receptor 4 (Cavia porcellus, UniProt O70528); format: cell membranes, Dunkin-Hartley, Striatum, Membrane; also: in other assays of this panel Not Active means under 50% inhibition at 10 µM
[3] = molecular target: Substance-P receptor (Homo sapiens, UniProt P25103); format: cell membranes, Membrane; details: cho; also: in other assays of this panel Not Active means under 50% inhibition at 10 µM
[4] = molecular target: Cannabinoid receptor 1 (Homo sapiens, UniProt P21554); format: cell membranes, Chem-1, Membrane; details: chem-1; also: in other assays of this panel Not Active means under 50% inhibition at 10 µM
[5] = molecular target: Mitogen-activated protein kinase 14 (Homo sapiens, UniProt Q16539); set-up: species or system Escherichia coli;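 also: inhibition of p38alpha enzyme activity in a biochemical kinase assay, with myelin basic protein serving as substrate; in other assays of this panel Not Active means under 50% inhibition at 10 µM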
[6] = molecular target: T1, Estrogen receptor (Homo sapiens, UniProt P03372); details: sf9; also: in other assays of this panel Not Active means under 50% inhibition at 10 µM
T1 sequence (P03372 whole entry): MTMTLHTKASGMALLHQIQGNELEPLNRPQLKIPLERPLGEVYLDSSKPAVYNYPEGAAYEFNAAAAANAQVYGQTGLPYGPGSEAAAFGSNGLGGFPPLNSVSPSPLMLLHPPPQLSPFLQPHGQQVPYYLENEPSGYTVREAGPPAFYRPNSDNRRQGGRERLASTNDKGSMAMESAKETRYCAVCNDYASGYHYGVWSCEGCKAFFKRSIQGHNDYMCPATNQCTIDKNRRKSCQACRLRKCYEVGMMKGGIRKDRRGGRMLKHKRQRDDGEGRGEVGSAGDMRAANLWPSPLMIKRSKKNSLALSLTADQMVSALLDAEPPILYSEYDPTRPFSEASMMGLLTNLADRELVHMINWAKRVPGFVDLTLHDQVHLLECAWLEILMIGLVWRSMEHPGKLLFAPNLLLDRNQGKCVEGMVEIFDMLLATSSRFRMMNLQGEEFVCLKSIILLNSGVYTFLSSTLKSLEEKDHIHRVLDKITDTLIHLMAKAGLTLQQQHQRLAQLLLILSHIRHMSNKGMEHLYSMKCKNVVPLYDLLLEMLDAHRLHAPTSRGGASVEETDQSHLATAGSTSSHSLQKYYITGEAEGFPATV

Sequence of Cannabinoid receptor 1 (P21554 whole entry): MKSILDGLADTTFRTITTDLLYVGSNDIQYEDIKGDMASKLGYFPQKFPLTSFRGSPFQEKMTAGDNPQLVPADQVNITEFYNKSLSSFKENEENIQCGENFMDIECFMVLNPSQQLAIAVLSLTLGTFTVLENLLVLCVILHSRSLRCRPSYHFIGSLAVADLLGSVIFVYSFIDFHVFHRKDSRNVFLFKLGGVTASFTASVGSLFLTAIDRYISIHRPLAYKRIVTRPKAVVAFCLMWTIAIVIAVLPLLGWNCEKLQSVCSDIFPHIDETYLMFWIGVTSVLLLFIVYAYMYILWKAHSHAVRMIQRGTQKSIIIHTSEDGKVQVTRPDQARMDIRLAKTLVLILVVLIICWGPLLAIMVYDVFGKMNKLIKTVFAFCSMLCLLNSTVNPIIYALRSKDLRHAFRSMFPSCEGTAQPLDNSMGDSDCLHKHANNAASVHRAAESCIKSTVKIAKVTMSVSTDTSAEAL
Sequence of Substance-P receptor (P25103 whole entry): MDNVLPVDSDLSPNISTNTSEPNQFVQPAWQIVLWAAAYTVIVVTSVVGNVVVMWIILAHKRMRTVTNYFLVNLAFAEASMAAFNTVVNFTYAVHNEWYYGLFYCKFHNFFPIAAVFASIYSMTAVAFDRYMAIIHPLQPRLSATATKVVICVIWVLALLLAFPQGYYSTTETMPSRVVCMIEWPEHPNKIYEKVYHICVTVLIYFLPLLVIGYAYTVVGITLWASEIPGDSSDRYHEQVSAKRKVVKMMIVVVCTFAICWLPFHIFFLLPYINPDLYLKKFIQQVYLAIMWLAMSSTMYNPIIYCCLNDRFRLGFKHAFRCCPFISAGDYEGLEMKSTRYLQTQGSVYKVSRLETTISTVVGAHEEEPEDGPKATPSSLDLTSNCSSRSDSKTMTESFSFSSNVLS
Sequence of Mitogen-activated protein kinase 14 (Q16539 whole entry): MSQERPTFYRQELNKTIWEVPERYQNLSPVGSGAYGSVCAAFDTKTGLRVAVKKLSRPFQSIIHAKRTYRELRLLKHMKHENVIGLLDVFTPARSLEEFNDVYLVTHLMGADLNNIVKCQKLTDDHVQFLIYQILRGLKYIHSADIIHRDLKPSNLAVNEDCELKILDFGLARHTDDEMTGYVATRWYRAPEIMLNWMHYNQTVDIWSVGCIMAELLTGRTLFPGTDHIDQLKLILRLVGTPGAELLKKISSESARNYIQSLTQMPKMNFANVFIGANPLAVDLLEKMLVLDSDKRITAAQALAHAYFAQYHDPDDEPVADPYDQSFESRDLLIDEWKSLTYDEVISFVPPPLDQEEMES
Sequence of 5-hydroxytryptamine receptor 4 (O70528 whole entry): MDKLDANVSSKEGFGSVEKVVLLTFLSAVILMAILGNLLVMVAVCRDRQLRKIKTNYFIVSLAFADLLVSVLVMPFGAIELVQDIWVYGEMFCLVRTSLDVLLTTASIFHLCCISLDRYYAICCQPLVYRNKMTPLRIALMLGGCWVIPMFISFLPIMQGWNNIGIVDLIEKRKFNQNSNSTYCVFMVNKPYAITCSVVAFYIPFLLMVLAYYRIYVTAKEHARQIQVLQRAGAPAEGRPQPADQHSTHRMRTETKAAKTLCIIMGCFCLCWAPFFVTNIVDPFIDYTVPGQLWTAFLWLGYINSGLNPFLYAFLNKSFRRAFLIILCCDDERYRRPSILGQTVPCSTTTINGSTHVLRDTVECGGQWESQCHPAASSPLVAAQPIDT

SMILES: NC(N)=Nc1nc(CSCCC(N)=NS(N)(=O)=O)cs1 [FAMOTIDINE]
- IC50 [1]: Not Active
- Ki [1]: Not Active
- IC50 [2]: Not Active
- IC50 [3]: Not Active
- IC50 [4]: Not Active
- IC50 [5]: Not Active
- IC50 [6]: Not Active

SMILES: C[N+](C)(C)CCOP(=O)([O-])OC[C@H](O)CO
- IC50 [1]: Not Active
- Ki [1]: Not Active
- IC50 [2]: Not Active
- IC50 [3]: Not Active
- IC50 [4]: Not Active
- IC50 [5]: Not Active
- IC50 [6]: Not Active

SMILES: COc1cc(/C=C/C(=O)O)ccc1O [FERULATE]
- IC50 [1]: Not Active
- Ki [1]: Not Active
- IC50 [2]: Not Active
- IC50 [3]: Not Active
- IC50 [4]: Not Active
- IC50 [5]: Not Active
- IC50 [6]: Not Active

SMILES: NC(=O)NC(=O)Cc1ccccc1 [PHENACEMIDE]
- IC50 [1]: Not Active
- Ki [1]: Not Active
- IC50 [2]: Not Active
- IC50 [3]: Not Active
- IC50 [4]: Not Active
- IC50 [5]: Not Active
- IC50 [6]: Not Active

SMILES: CC(C)Cn1cnc2c(N)nc3ccccc3c21 [IMIQUIMOD]
- IC50 [1]: Not Active
- Ki [1]: Not Active
- IC50 [2]: Not Active
- IC50 [3]: Not Active
- IC50 [4]: Not Active
- IC50 [5]: Not Active
- IC50 [6]: Not Active

SMILES: CCO [ALCOHOL]
- IC50 [1]: Not Active
- Ki [1]: Not Active
- IC50 [2]: Not Active
- IC50 [3]: Not Active
- IC50 [4]: Not Active
- IC50 [5]: Not Active
- IC50 [6]: Not Active

SMILES: C[C@H](C(=O)O)c1ccc2oc(-c3ccc(F)cc3)nc2c1 [FLUNOXAPROFEN]
- IC50 [1]: Not Active
- Ki [1]: Not Active
- IC50 [2]: Not Active
- IC50 [3]: Not Active
- IC50 [4]: Not Active
- IC50 [5]: Not Active
- IC50 [6]: Not Active

SMILES: O=C(O)c1ccccc1 [BENZOIC ACID]
- IC50 [1]: Not Active
- Ki [1]: Not Active
- IC50 [2]: Not Active
- IC50 [3]: Not Active
- IC50 [4]: Not Active
- IC50 [5]: Not Active
- IC50 [6]: Not Active

SMILES: CN(CCOc1ccc(C[C@H](Nc2ccccc2C(=O)c2ccccc2)C(=O)O)cc1)c1ccccn1
- IC50 [1]: Not Active
- Ki [1]: Not Active
- IC50 [2]: Not Active
- IC50 [3]: Not Active
- IC50 [4]: Not Active
- IC50 [5]: Not Active
- IC50 [6]: Not Active

SMILES: O=c1[nH]cnc2c1ncn2[C@H]1CC[C@@H](CO)O1 [DIDANOSINE]
- IC50 [1]: Not Active
- Ki [1]: Not Active
- IC50 [2]: Not Active
- IC50 [3]: Not Active
- IC50 [4]: Not Active
- IC50 [5]: Not Active
- IC50 [6]: Not Active

SMILES: ClC1=C(Cl)[C@]2(Cl)[C@@H]3[C@@H]4C[C@@H]([C@H]5O[C@@H]45)[C@@H]3[C@@]1(Cl)C2(Cl)Cl [DIELDRIN]
- IC50 [1]: Not Active
- Ki [1]: Not Active
- IC50 [2]: Not Active
- IC50 [3]: Not Active
- IC50 [4]: Not Active
- pIC50 ([5]; read-out: IC50): 4.36
- IC50 [6]: Not Active

SMILES: c1ccc(Cn2ccnc2)cc1
- IC50 [1]: Not Active
- Ki [1]: Not Active
- IC50 [2]: Not Active
- IC50 [3]: Not Active
- IC50 [4]: Not Active
- IC50 [5]: Not Active
- IC50 [6]: Not Active

SMILES: CC12CCC(CC1)C(C)(C)O2 [EUCALYPTOL]
- IC50 [1]: Not Active
- Ki [1]: Not Active
- IC50 [2]: Not Active
- IC50 [3]: Not Active
- IC50 [4]: Not Active
- IC50 [5]: Not Active
- IC50 [6]: Not Active

SMILES: Nc1nc(N)c2nc(CNc3ccc(C(=O)N[C@@H](CCC(=O)O)C(=O)O)cc3)cnc2n1 [AMINOPTERIN]
- IC50 [1]: Not Active
- Ki [1]: Not Active
- IC50 [2]: Not Active
- IC50 [3]: Not Active
- IC50 [4]: Not Active
- IC50 [5]: Not Active
- IC50 [6]: Not Active

SMILES: COc1ccccc1OCCNCC(O)COc1cccc2[nH]c3ccccc3c12 (stereo not drawn) [CARVEDILOL]
- IC50 [1]: Not Active
- Ki [1]: Not Active
- pIC50 ([2]; read-out: IC50): 5.96
- pKi ([2]; read-out: Ki): 6.74
- IC50 [3]: Not Active
- IC50 [4]: Not Active
- IC50 [5]: Not Active
- IC50 [6]: Not Active

SMILES: CC(C)Cc1ccc([C@H](C)C(=O)O)cc1 [DEXIBUPROFEN]
- IC50 [1]: Not Active
- Ki [1]: Not Active
- IC50 [2]: Not Active
- IC50 [3]: Not Active
- IC50 [4]: Not Active
- IC50 [5]: Not Active
- IC50 [6]: Not Active
